Source: patent US8445531B2, “Rodenticidal compounds, composition including same and use thereof for controlling harmful rodents” (priority 2010, dated 2013)

Assays:
[1] = Liver residue follow-up (remanence) in rats; assay type: in vivo; conditions: rat liver
Experimental: (§1) 3 lots of 5 rats were used for the compound of formula (II), and 2 lots of 4 rats were used for bromadiolone.
(§2) 3 doses of 10 mg/kg of rat were administered intraperitoneally in succession at T0, T24h and T48h.
1 lot of rats was used to carry out a metering of residue of the compound of formula (II) in the liver at T72h, T96h and T120h.
(§3) Doses of 2 mg/kg/day were administered for 4 days.
A metering of bromadiolone residue in the liver at T120h was carried out.

rats [2] = experiment: Coagulation time follow-up in rats; assay type: in vivo, rat
Experimental: as §1, §2
1 lot of rats was used to follow the coagulation time between 24 hours and 120 hours after the first injection. Actually, the coagulation time is the first parameter that varies and tends toward infinity under the action of an anticoagulant.
as §3
1 lot of rats was used to follow the coagulation time between 24 hours and 120 hours after the first injection.

rats [3] = experiment: Mortality follow-up in rats after repeated administration; assay type: in vivo, rat
Description: The rodenticidal effectiveness and the remanence of the compounds according to the invention have been tested in comparison with the rodenticidal product of reference bromadiolone, with bromadiolone being the least remanent of all of the second-generation anticoagulants currently used in combating rodents.
For this test, the compound of formula (II) that is obtained by implementing the process disclosed above is used.
as §1, §2
1 lot of rats was used to follow the mortality rate brought about by the 3 administrations of the compound of formula (II) according to the invention.
as §3
1 lot of rats was used to determine the mortality rate brought about at T120h.

[4] = 3 doses of 10 mg/kg intraperitoneally at T0, T24h, T48h, T24 h
[5] = 3 doses of 10 mg/kg intraperitoneally at T0, T24h, T48h, T48 h
[6] = 3 doses of 10 mg/kg intraperitoneally at T0, T24h, T48h, T72 h

Structure (SMILES): O=c1oc2ccccc2c(O)c1C(CC(O)c1ccc(-c2ccc(Br)cc2)cc1)c1ccccc1 (stereo not drawn) [Bromadiolone, bromadiolone]
- Liver Residue Follow-Up ([1]; 2 mg/kg/day for 4 days, T120 h): 4.2 µg/g
- liver residue of bromadiolone relative to compound of formula (II) ([1]; 120 hours after the first injection): 11 times
- Coagulation Time Follow-Up (rats [2]; 2 mg/kg/day for 4 days, T0): Infinite
- Coagulation Time Follow-Up (rats [2]; 2 mg/kg/day for 4 days, T24 h): Infinite
- Coagulation Time Follow-Up (rats [2]; 2 mg/kg/day for 4 days, T48 h): Infinite
- Coagulation Time Follow-Up (rats [2]; 2 mg/kg/day for 4 days, T72 h): Infinite
- Coagulation Time Follow-Up (rats [2]; 2 mg/kg/day for 4 days, T96 h): Infinite
- Coagulation Time Follow-Up (rats [2]; 2 mg/kg/day for 4 days, T120 h, 2 mg/kg/day): Infinite
- Coagulation Time Follow-Up (rats [2]; 2 mg/kg/day for 4 days, T120 h, listed as bromadiolone, 2 mg/kg/day): infinite
- Total Mortality (rats [3]; 2 mg/kg/day for 4 days, 2 mg/kg/day): 100%
- Mortality Follow-Up (rats [3]; 2 mg/kg/day for 4 days, T96 h): 2 Deaths
- Mortality Follow-Up (rats [3]; 2 mg/kg/day for 4 days, T120 h): 2 Deaths
- Total Mortality (rats [3]; 2 mg/kg/day for 4 days, listed as reference rodenticidal product, 2 mg/kg/day): 100%

Structure (SMILES): C/C(=C\Cc1c(O)c2ccccc2oc1=O)CCCC(C)CCCC(C)CCCC(C)C (stereo not drawn) [Compound According to the Invention, 3-phytyl-4-hydroxy-coumarin]
- concentration at 72 h ([1]; ip, 3 doses of 10 mg/kg intraperitoneally at T0, T24h, T48h, T72 h): 650 ng/g
- concentration at 96 h ([1]; ip, 3 doses of 10 mg/kg intraperitoneally at T0, T24h, T48h, T96 h): 510 ng/g
- concentration at 120 h ([1]; ip, 3 doses of 10 mg/kg intraperitoneally at T0, T24h, T48h, T120 h): 370 ng/g
- Coagulation Time Follow-Up (rats [2]; 3 doses of 10 mg/kg intraperitoneally at T0, T24h, T48h, T0): Infinite
- Coagulation Time Follow-Up (rats [2]; [4]): Infinite
- Coagulation Time Follow-Up (rats [2]; [5]): Infinite
- Coagulation Time Follow-Up (rats [2]; [6]): Infinite
- Coagulation Time Follow-Up (rats [2]; 3 doses of 10 mg/kg intraperitoneally at T0, T24h, T48h, T96 h): Infinite
- Coagulation Time Follow-Up (rats [2]; 3 doses of 10 mg/kg intraperitoneally at T0, T24h, T48h, T120 h): 120 s
- Total Mortality (rats [3]; 3 doses of 10 mg/kg intraperitoneally at T0, T24h, T48h, 10 mg/kg): 100%
- Mortality Follow-Up (rats [3]; [4]): 2 Deaths
- Mortality Follow-Up (rats [3]; [5]): 2 Deaths
- Mortality Follow-Up (rats [3]; [6]): 1 Death
- Total Mortality (rats [3]; 3 doses of 10 mg/kg intraperitoneally at T0, T24h, T48h, listed as compounds according to the invention, 10 mg/kg): 100%
